A word on the IC50: it is the point on the concentration scale where inhibition reaches its midpoint. In general, Ki refers to the dissociation constant of the complex between target and ligand, obtained from inhibition or displacement. A low value points to a stronger hold on the target. In general, Vmax refers to the rate approached at saturating substrate. The Km is the substrate concentration at which the rate is half of its maximum.

The target in series [1] is T1, Alpha amylase (Homo sapiens, UniProt P0DUB6).
T1 sequence (P0DUB6 whole entry): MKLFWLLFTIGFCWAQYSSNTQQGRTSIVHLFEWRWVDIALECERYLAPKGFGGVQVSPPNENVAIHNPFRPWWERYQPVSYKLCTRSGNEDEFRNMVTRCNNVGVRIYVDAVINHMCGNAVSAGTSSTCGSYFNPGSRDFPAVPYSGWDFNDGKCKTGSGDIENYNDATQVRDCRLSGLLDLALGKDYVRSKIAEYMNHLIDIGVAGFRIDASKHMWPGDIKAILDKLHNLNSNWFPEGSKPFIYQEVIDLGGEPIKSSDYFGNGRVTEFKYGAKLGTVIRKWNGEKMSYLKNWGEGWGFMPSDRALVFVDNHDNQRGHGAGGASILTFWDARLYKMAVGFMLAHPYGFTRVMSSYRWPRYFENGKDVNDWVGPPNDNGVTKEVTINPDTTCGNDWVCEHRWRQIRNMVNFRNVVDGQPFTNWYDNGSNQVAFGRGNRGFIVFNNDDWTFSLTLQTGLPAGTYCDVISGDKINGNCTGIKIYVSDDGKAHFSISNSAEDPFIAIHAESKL
The series can be described thus: Inhibition of alpha-amylase (unknown origin) using starch as substrate preincubated for 10 mins followed by substrate addition measured after 10 mins by dinitrosalicylic acid color reagent based assay.

The target of series [2] is T1, Alpha amylase. The series can be described thus: Mixed-type inhibition of alpha-amylase (unknown origin) using p-nitrophenylR-D-maltoside as substrate incubated for 30 mins at 1 min time interval.
Series [3] concerns CC1=NN(c2ccc(Cl)cc2)C(=O)/C1=C/c1cc(Cl)cc(Cl)c1O. The series is described as follows: (§1) Mixed-type inhibition of alpha-amylase (unknown origin) assessed as Vmax for substrate using p-nitrophenylR-D-maltoside as substrate incubated for 30 mins at 1 min time interval. Conditions: Homo sapiens.
Series [4] deals with CC1=NN(c2ccc(Cl)cc2)C(=O)/C1=C/c1cc(F)ccc1Br. The series is described as §1. Conditions: Homo sapiens.
The subject of series [5] is CC1=NN(c2ccc(Cl)cc2)C(=O)/C1=C/c1ccc(Br)cc1. The description is as §1. Conditions: Homo sapiens.
The subject of series [6] is COc1cc(/C=C2/C(=O)N(c3ccc(Cl)cc3)N=C2C)c(OC)cc1Br. The description is as §1. The note with it: Homo sapiens.
Series [7] has as its system COc1cc(/C=C2/C(=O)N(c3ccc(Cl)cc3)N=C2C)cc(OC)c1Br. Described as §1. Conditions: Homo sapiens.
For series [8], the system named is COc1cc(/C=C2/C(=O)N(c3ccc(Cl)cc3)N=C2C)ccc1OC(C)=O. The series is described as §1. Conditions: Homo sapiens.
Series [9] has as its system COc1ccc(/C=C2/C(=O)N(c3ccc(Cl)cc3)N=C2C)c(Cl)c1OC. The series is described as §1. Conditions: Homo sapiens.
Series [10] has as its system COc1ccc(/C=C2/C(=O)N(c3ccc(Cl)cc3)N=C2C)cc1Br. The description is as §1. The note with it: Homo sapiens.
Series [11] deals with CC1=NN(c2ccc(Cl)cc2)C(=O)/C1=C/c1cc(Cl)cc(Cl)c1O. The series can be described thus: (§2) Mixed-type inhibition of alpha-amylase (unknown origin) assessed as Km for substrate using p-nitrophenylR-D-maltoside as substrate incubated for 30 mins at 1 min time interval. The note with it: Homo sapiens.
The subject of series [12] is CC1=NN(c2ccc(Cl)cc2)C(=O)/C1=C/c1cc(F)ccc1Br. Described as §2. Conditions: Homo sapiens.
Series [13] relates to CC1=NN(c2ccc(Cl)cc2)C(=O)/C1=C/c1ccc(Br)cc1. The description is as §2. Conditions: Homo sapiens.
The subject of series [14] is COc1cc(/C=C2/C(=O)N(c3ccc(Cl)cc3)N=C2C)c(OC)cc1Br. The description is as §2. Conditions: Homo sapiens.
In series [15] the test system is COc1cc(/C=C2/C(=O)N(c3ccc(Cl)cc3)N=C2C)cc(OC)c1Br. Described as §2. Conditions: Homo sapiens.
Series [16] relates to COc1cc(/C=C2/C(=O)N(c3ccc(Cl)cc3)N=C2C)ccc1OC(C)=O. The description is as §2. Conditions: Homo sapiens.
Series [17] relates to COc1ccc(/C=C2/C(=O)N(c3ccc(Cl)cc3)N=C2C)c(Cl)c1OC. Described as §2. The note with it: Homo sapiens.
Series [18] deals with COc1ccc(/C=C2/C(=O)N(c3ccc(Cl)cc3)N=C2C)cc1Br. The series is described as §2. The note with it: Homo sapiens.

In the case of `CC1=NN(c2ccc(Cl)cc2)C(=O)/C1=C/c1cc(Cl)cc(Cl)c1O`, in series [1], the IC50 stood at 1610 nM. Moreover, the inhibitory constant (Ki) in series [2] amounted to 4260 nM.
Molecule `COc1ccccc1/C=C1/C(=O)N(c2ccc(Cl)cc2)N=C1C` displayed a concentration for half-maximal inhibition (IC50) in series [1] of 2020 nM.
On the same count and under the same terms, with `COc1ccc(/C=C2/C(=O)N(c3ccc(Cl)cc3)N=C2C)c(OC)c1` the figure was 2010 nM.
Still for that read-out and setting: with `CC1=NN(c2ccc(Cl)cc2)C(=O)/C1=C/c1c[nH]c2ccccc12` the figure was 2160 nM.
In turn, `COc1ccc(/C=C2/C(=O)N(c3ccc(Cl)cc3)N=C2C)c(Cl)c1OC` came in with an IC50 in series [1] of 1970 nM. In series [2], this molecule yielded an inhibition constant (Ki) of 3540 nM.
In turn, `CC1=NN(c2ccc(Cl)cc2)C(=O)/C1=C/c1ccc([N+](=O)[O-])cc1` returned an IC50 in series [1] of 2380 nM.
On the same count and under the same terms, then `COc1ccc(OC)c(/C=C2/C(=O)N(c3ccc(Cl)cc3)N=C2C)c1`, with 2130 nM.
The same measure, in the same setting: with `COc1ccc(/C=C2/C(=O)N(c3ccc(Cl)cc3)N=C2C)cc1OC` the figure was 2030 nM.
`COc1ccc(/C=C2/C(=O)N(c3ccc(Cl)cc3)N=C2C)cc1Br`: the IC50 in series [1] was 1920 nM. The molecule further gave a Ki in series [2] of 3840 nM.
`COc1cc(/C=C2/C(=O)N(c3ccc(Cl)cc3)N=C2C)cc(OC)c1OC` showed an IC50 in [1] of 2190 nM.
As to `CC1=NN(c2ccc(Cl)cc2)C(=O)/C1=C/c1cc(F)ccc1Br`, in [1], the IC50 was 1930 nM. In [2], the Ki stood at 3420 nM.
`COc1cc(/C=C2/C(=O)N(c3ccc(Cl)cc3)N=C2C)ccc1OCc1ccccc1` registered an IC50 in series [1] of 2330 nM.
Molecule `COc1cc(/C=C2/C(=O)N(c3ccc(Cl)cc3)N=C2C)c(OC)cc1Br` registered an IC50 in series [1] of 1860 nM. Further, the Ki in series [2] stood at 3120 nM.
Turning to `COc1cc(/C=C2/C(=O)N(c3ccc(Cl)cc3)N=C2C)cc(OC)c1`, the IC50 in [1] was 2210 nM.
Consider `CC1=NN(c2ccc(Cl)cc2)C(=O)/C1=C/c1ccc(Br)cc1`, for which the IC50 in [1] is 1920 nM. For the same molecule, the Ki in [2] was 3840 nM.
`COc1ccc(/C=C2/C(=O)N(c3ccc(Cl)cc3)N=C2C)c(OC)c1OC` had an IC50 in series [1] of 2100 nM.
With “Alpha amylase (Homo sapiens) (from UniProt P0DUB6)”, the Vmax in [3] stood at 79.7 µM/min; in series [4], 71.2 µM/min; in series [5], 73.4 µM/min; in [6], 71.4 µM/min; in [7], 65.2 µM/min; in [8], 70.5 µM/min. Also, the Vmax amounted to 70.6 µM/min in series [9] and 68.3 µM/min in [10]. Besides, the Km came out at 3.4 mM in [11]; 3.11 mM in [12]; 3.26 mM in [13]; 3.04 mM in series [14]; 2.92 mM in [15]; 2.9 mM in [16]. Further, the Km came out at 3.14 mM in [17] and 2.86 mM in series [18].
As to `COc1cc(/C=C2/C(=O)N(c3ccc(Cl)cc3)N=C2C)cc(OC)c1Br`, the IC50 in series [1] was determined as 1680 nM. The same molecule had a Ki in series [2] of 3240 nM.
In turn, `COc1cc(/C=C2/C(=O)N(c3ccc(Cl)cc3)N=C2C)ccc1OC(C)=O` came in with an IC50 in series [1] of 1940 nM. In [2], this molecule returned a Ki of 2980 nM.

For the origin of these results see ChEMBL document CHEMBL4265970, “2'-Aryl and 4'-arylidene substituted pyrazolones: As potential α-amylase inhibitors” (Eur J Med Chem, 2018).
